Data from PubChem BioAssay (NCI).
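1) Cells in 96-well plates. 2) Compound, 48 h, 5 concentrations. 3) Linear interpolation between surrounding doses. 4) Unreached endpoint = highest concentration. TGI marks complete inhibition of growth.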

How the values were obtained:
Assay in all cases: NCI tumour cell line growth inhibition, 48 h
[1] = system: TK-10 renal
[2] = system: CAKI-1 renal
[3] = system: HL-60(TB) leukemia
[4] = system: DLD-1 colon
[5] = system: SK-MEL-28 melanoma
[6] = system: RPMI-8226 leukemia
[7] = system: MOLT-4 leukemia
[8] = system: HCC-2998 colon
[9] = system: KM20L2 colon

With `O=C1c2ccccc2C(=O)N1C/C=N/NS(=O)(=O)c1ccc(Br)cc1` the TGI [1] was greater than 100 µM, the TGI [2] was greater than 100 µM and the TGI [3] was greater than 100 µM. The TGI [4] was greater than 100 µM, the TGI [5] was greater than 100 µM and the TGI [6] was greater than 100 µM. It also gave a TGI [7] greater than 100 µM, a TGI [8] greater than 100 µM and a TGI [9] greater than 100 µM.
For `COc1cc(-c2nnc3n2NC=C(C(=O)O)S3)cc(OC)c1OC`, the TGI [1] was greater than 100 µM, the TGI [2] was greater than 100 µM and the TGI [3] was greater than 73.4 µM. For the same molecule, the TGI [4] was greater than 79.9 µM, the TGI [5] was greater than 100 µM and the TGI [6] was greater than 68.7 µM. For the same molecule, the TGI [7] was greater than 100 µM, the TGI [8] was greater than 100 µM and the TGI [9] was greater than 100 µM.
`COc1ccc2nc3cc(Cl)ccc3c(Sc3ccc(NC(C)=O)cc3)c2c1` gave a TGI [1] greater than 51.1 µM, a TGI [2] greater than 50.6 µM and a TGI [3] of 52 µM. For the same molecule, the TGI [4] was greater than 24.1 µM, the TGI [5] was 38.7 µM and the TGI [6] was 83.8 µM. For the same molecule, the TGI [7] was 84.4 µM, the TGI [8] was 5.93 µM and the TGI [9] was greater than 42.1 µM.
`Cc1c(Cl)cccc1NC(=O)c1cccc([N+](=O)[O-])c1O` gave a TGI [1] greater than 100 µM, a TGI [2] greater than 64.1 µM and a TGI [3] greater than 49.4 µM. It also gave a TGI [4] greater than 100 µM, a TGI [5] greater than 77 µM and a TGI [6] greater than 60 µM. It also gave a TGI [7] of 46.7 µM, a TGI [8] of 78.6 µM and a TGI [9] of 54.3 µM.
For `CC12CCC(=O)N1c1cccnc1N2` (stereo not given), the TGI [1] was greater than 100 µM, the TGI [2] was greater than 100 µM and the TGI [3] was greater than 100 µM. The TGI [4] was greater than 100 µM, the TGI [5] was greater than 100 µM and the TGI [6] was greater than 100 µM. The TGI [7] was greater than 100 µM, the TGI [8] was greater than 100 µM and the TGI [9] was greater than 100 µM.
